Results: patent US6355799B1, “Substituted benzene compounds, process for their preparation, and herbicidal and defoliant compositions containing them” (ISK Americas Incorporated, priority 1997, dated 2002)

Legend:
Type in all cases: in vivo
[1] = test system: field corn (Zea mays L., var. Dekalb 535, CORN); assay: Post-emerge test, crop safety; settings: post-emerge, 14 days after application, rating scale 0-100
In short: (§1)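 Compounds in acetone were track-sprayed at 187 l/ha, 15–1000 g ai/ha, onto sandy loam pots. Pre-emerge seeds were sown one day before spraying, with surface watering afterwards. Post-emerge plants were at the 2–3 leaf stage and sprayed with 0.25% v/v non-ionic surfactant. Injury was rated 0–100 at 14 days.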

[2] = test system: upland rice (Oryza sp., var. Tebonnet, RICE); assay: Post-emerge test, crop safety; settings: post-emerge, 14 days after application, rating scale 0-100
In short: as §1

[3] = test system: field corn (Zea mays L., var. Dekalb 535, CORN); assay: Pre-emerge test, crop safety; settings: crop damage rating 0-100, 14 days after application
In short: (§2)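 Visual ratings on a 0-100 scale (0 no damage, 100 all plants dead) were taken at 14 days after treatment. Rates of 15-1000 g ai/ha in acetone, 187 l/ha, were sprayed onto soil one day after planting (pre-emerge) or onto 2-3 leaf plants with 0.25% v/v surfactant (post-emerge).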

[4] = test system: upland rice (Oryza sp., var. Tebonnet, RICE); assay: Pre-emerge test, crop safety; settings: crop damage rating 0-100, 14 days after application
In short: as §2

[5] = test system: redroot pigweed (Amaranthus retroflexus, AMARE); assay: Pre-emerge test, greenhouse herbicide activity screening; settings: phytotoxicity rating 0-100, 14 days after application
In short: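 Plants grown in 10 cm pots of sandy loam mix received acetone-dissolved compounds through a moving flat-fan nozzle. Doses ranged from 15 to 1000 g ai/ha. Pre-emerge pots were seeded one day earlier, post-emerge pots 8–21 days earlier. Fourteen days on, each pot was graded 0–100 for damage.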

[6] = test system: green foxtail (Setaria viridis, SETVI); assay: Post-emerge test, greenhouse herbicide activity screening; settings: post-emerge, 14 days after application, rating scale 0-100
In short: (§3)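 Herbicidal damage is scored 0 (none) to 100 (complete plant death) two weeks after a simulated field spray. Rates span 15–1000 g ai/ha, delivered in acetone at 187 l/ha. For post-emergence treatments, plants have 2–3 leaves and the spray carries 0.25% v/v non-ionic surfactant.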

[7] = test system: lambsquarters (Chenopodium album, CHEAL); assay: as above; settings: post-emerge, 14 days after application, rating scale 0-100
In short: as §3

[8] = test system: ivyleaf morningglory (Ipomoea hederacea, IPOHE); assay: as above; settings: post-emerge, 14 days after application, rating scale 0-100
In short: as §3

[9] = test system: sicklepod (Cassia obtusifolia, CASOB); assay: as above; settings: post-emerge, 14 days after application, rating scale 0-100
In short: as §3

[10] = test system: johnsongrass (Sorghum halepense, SORHA); assay: as above; settings: post-emerge, 14 days after application, rating scale 0-100
In short: as §3

[11] = test system: barnyardgrass (Echinochloa crus-galli, ECHCG); assay: as above; settings: post-emerge, 14 days after application, rating scale 0-100
In short: as §3

[12] = test system: large crabgrass (Digitaria sanguinalis, DIGSA); assay: as above; settings: post-emerge, 14 days after application, rating scale 0-100
In short: as §3

[13] = test system: redroot pigweed (Amaranthus retroflexus, AMARE); assay: as above; settings: post-emerge, 14 days after application
In short: as §3

[14] = test system: velvetleaf (Abutilon theophrasti, ABUTH); assay: as above; settings: post-emerge, 14 days after application, rating scale 0-100
In short: as §3

[15] = test system: green foxtail (Setaria viridis, SETVI); assay: Pre-emerge test, greenhouse herbicide activity screening; settings: phytotoxicity rating 0-100, 14 days after application
In short: as §1

[16] = test system: lambsquarters (Chenopodium album, CHEAL); assay: as above; settings: phytotoxicity rating 0-100, 14 days after application
In short: as §1

[17] = test system: ivyleaf morningglory (Ipomoea hederacea, IPOHE); assay: as above; settings: phytotoxicity rating 0-100, 14 days after application
In short: as §1

[18] = test system: sicklepod (Cassia obtusifolia, CASOB); assay: as above; settings: phytotoxicity rating 0-100, 14 days after application
In short: as §1

[19] = test system: johnsongrass (Sorghum halepense, SORHA); assay: as above; settings: phytotoxicity rating 0-100, 14 days after application
In short: as §1

[20] = test system: barnyardgrass (Echinochloa crus-galli, ECHCG); assay: as above; settings: phytotoxicity rating 0-100, 14 days after application
In short: as §1

[21] = test system: large crabgrass (Digitaria sanguinalis, DIGSA); assay: as above; settings: phytotoxicity rating 0-100, 14 days after application
In short: as §1

[22] = test system: velvetleaf (Abutilon theophrasti, ABUTH); assay: as above; settings: phytotoxicity rating 0-100, 14 days after application
In short: as §1

Cn1c(C(F)(F)F)cc(=O)n(-c2c(F)cc(Cl)c(OCC#N)c2NC(=O)OCc2ccccc2)c1=O [4-23]
phytotoxicity rating CORN (crop damage) ([1]; 63 g ai/ha): 35
phytotoxicity rating CORN (crop damage) ([1]; 250 g ai/ha): 80
phytotoxicity rating RICE (crop damage) ([2]; 63 g ai/ha): 60
phytotoxicity rating RICE (crop damage) ([2]; 250 g ai/ha): 80
Pre-emerge Herbicidal Activity CORN ([3]; 63 g ai/ha): 35
Pre-emerge Herbicidal Activity CORN ([3]; 250 g ai/ha): 90
Pre-emerge Herbicidal Activity RICE ([4]; 63 g ai/ha): 60
Pre-emerge Herbicidal Activity RICE ([4]; 250 g ai/ha): 90
Pre-emerge Herbicidal Activity AMARE ([5]; 63 g ai/ha): 100
Pre-emerge Herbicidal Activity AMARE ([5]; 250 g ai/ha): 100
phytotoxicity rating SETVI ([6]; 63 g ai/ha): 40
phytotoxicity rating SETVI ([6]; 250 g ai/ha): 70
phytotoxicity rating CHEAL ([7]; 63 g ai/ha): 80
phytotoxicity rating CHEAL ([7]; 250 g ai/ha): 100
phytotoxicity rating IPOHE ([8]; 63 g ai/ha): 100
phytotoxicity rating IPOHE ([8]; 250 g ai/ha): 100
phytotoxicity rating CASOB ([9]; 63 g ai/ha): 80
phytotoxicity rating CASOB ([9]; 250 g ai/ha): 100
phytotoxicity rating SORHA ([10]; 63 g ai/ha): 10
phytotoxicity rating SORHA ([10]; 250 g ai/ha): 50
phytotoxicity rating ECHCG ([11]; 63 g ai/ha): 20
phytotoxicity rating ECHCG ([11]; 250 g ai/ha): 60
phytotoxicity rating DIGSA ([12]; 63 g ai/ha): 10
phytotoxicity rating DIGSA ([12]; 250 g ai/ha): 40
phytotoxicity rating AMARE ([13]; 63 g ai/ha, rating scale 0-100 (0 no damage, 100 complete death)): 100
phytotoxicity rating AMARE ([13]; 250 g ai/ha, rating scale 0-100): 100
phytotoxicity rating ABUTH ([14]; 63 g ai/ha): 100
phytotoxicity rating ABUTH ([14]; 250 g ai/ha): 100
Pre-emerge Herbicidal Activity SETVI ([15]; 63 g ai/ha): 80
Pre-emerge Herbicidal Activity SETVI ([15]; 250 g ai/ha): 100
Pre-emerge Herbicidal Activity CHEAL ([16]; 63 g ai/ha): 100
Pre-emerge Herbicidal Activity CHEAL ([16]; 250 g ai/ha): 100
Pre-emerge Herbicidal Activity IPOHE ([17]; 63 g ai/ha): 100
Pre-emerge Herbicidal Activity IPOHE ([17]; 250 g ai/ha): 80
Pre-emerge Herbicidal Activity CASOB ([18]; 63 g ai/ha): 80
Pre-emerge Herbicidal Activity CASOB ([18]; 250 g ai/ha): 100
Pre-emerge Herbicidal Activity SORHA ([19]; 63 g ai/ha): 70
Pre-emerge Herbicidal Activity SORHA ([19]; 250 g ai/ha): 90
Pre-emerge Herbicidal Activity ECHCG ([20]; 63 g ai/ha): 80
Pre-emerge Herbicidal Activity ECHCG ([20]; 250 g ai/ha): 95
Pre-emerge Herbicidal Activity DIGSA ([21]; 63 g ai/ha): 80
Pre-emerge Herbicidal Activity DIGSA ([21]; 250 g ai/ha): 100
Pre-emerge Herbicidal Activity ABUTH ([22]; 63 g ai/ha): 100
Pre-emerge Herbicidal Activity ABUTH ([22]; 250 g ai/ha): 100
